Several values for one entry are separate records, joined by “and”; a condition that tells them apart may be missing. Equal entries are not always repeated. Non-standard residues stand in square brackets, D forms with d. Residues, ends and D or L forms follow the SMILES beside them. pGlu = O=C1CC[C@@H](C(=O)O)N1
Legend:
[1] = system: A. aegypti ACP receptor (AedaeACPR); assay: Calcium bioluminescence (aequorin) reporter assay of heterologously expressed ACPR; assay type: cell-based, Aedes aegypti; settings: for Fold-reduction in activity relative to AedaeACP: ACPR in CHO-K1 aequorin cells, relative to native Aedae-ACP; for EC50: CHO-K1 cells stably expressing aequorin, transiently transfected with ACPR and murine Gα15 (pBudCE4.1), luminescence 20 s, 3 to 4 independent biological replicates, ND = no determined EC50 due to minimal or no detectable activity up to 10 μM; for Activity on ACPR at the highest tested dose, in words: 10 μM, Figure 2, ANOVA and Tukey post-test
From the text: Therefore, to improve the bioluminescent signal linked to calcium mobilization following receptor activation, which was required in order to provide greater signal to noise ratio when testing ACP analogs with substitutions leading to intermediate levels of activation of the ACPR, we created a new mammalian expression construct using the dual promoter vector, pBudCE4.1. Specifically, we utilized a cloning strategy as reported previously ([41]) whereby the ACPR was inserted into the multiple cloning site (MCS) downstream of the CMV promoter in pBudCE4.1 using the sense primer SalI-KozakACPR, 5′-[…]-3′ and anti-sense primer XbaI-ACPR, 5′-[…]-3′, which directionally inserted the ACPR within the MCS downstream of the CMV promoter. Secondly, the murine homolog (Gα15) of the human promiscuous G protein, Gα16, which indiscriminately couples a wide variety of GPCRs to calcium signaling ([42]) was inserted into the MCS downstream of the EF1-α promoter in pBudCE4.1 using the sense primer NotI-Gα15, 5′-[…]-3′ and anti-sense primer BglII-Gα15, 5′-[…]-3′, which directionally inserted the murine Gα15 within the MCS downstream of the EF1-α promoter.
(§1) Functional activation of the AedaeACPR and AedaeAKHR-IA receptors was carried out following a previously described mammalian cell culture system involving a Chinese hamster ovary (CHO)-K1 cell line stably expressing aequorin ([43]). Cells were grown in DMEM:F12 media containing 10% heat-inactivated fetal bovine serum (Wisent, St. Bruno, QC), 200 μg/mL Geneticin, 1x antimycotic-antibiotic to approximately 90% confluency, and were transiently transfected using either Lipofectamine LTX with Plus Reagent or Lipofectamine 3000 transfection systems (Invitrogen, Burlington, ON) following manufacturer recommended DNA to transfection reagent ratios. Cells were detached from the culture flasks at 48 h post-transfection using 5 mM EDTA in Dulbecco's PBS. Cells were then prepared for the receptor functional assay following a procedure described previously ([27]). Stocks of peptide analogs of ACP and AKH were used for preparation of serial dilutions all of which were prepared in assay media (0.1% BSA in DMEM:F12) and loaded in quadruplicates into 96-well white luminescence plates (Greiner Bio-One, Germany). Cells were loaded with an automatic injector into each well of the plate containing different peptide analogs at various concentrations as well as negative control (assay media alone) and positive control wells (50 μM ATP). Immediately after injection of the cells, luminescence was measured for 20 s using a Synergy 2 Multi-Mode Microplate Reader (BioTek, Winooski, VT, USA). Calculations, including determination of EC50 values, were conducted in GraphPad Prism 7.02 (GraphPad Software, San Diego, USA) from dose-response curves from 3 to 4 independent biological replicates.

[2] = target: A. aegypti AKHR-IA receptor (AKHR-IA) (Aedes aegypti, UniProt A0A2P1A8S4); assay: Calcium bioluminescence (aequorin) reporter assay of heterologously expressed AKHR-IA; assay type: cell-based; settings: for Fold-reduction in activity relative to Aedae-AKH: AKHR-IA in CHO-K1 aequorin cells, relative to native Aedae-AKH; for EC50: CHO-K1 cells stably expressing aequorin, transiently transfected with AKHR-IA (pcDNA3.1+), luminescence 20 s, 3 to 4 independent biological replicates, ND = no determined EC50 due to minimal or no detectable activity up to 10 μM
Sequence of A. aegypti AKHR-IA receptor (AKHR-IA) (A0A2P1A8S4 1-410): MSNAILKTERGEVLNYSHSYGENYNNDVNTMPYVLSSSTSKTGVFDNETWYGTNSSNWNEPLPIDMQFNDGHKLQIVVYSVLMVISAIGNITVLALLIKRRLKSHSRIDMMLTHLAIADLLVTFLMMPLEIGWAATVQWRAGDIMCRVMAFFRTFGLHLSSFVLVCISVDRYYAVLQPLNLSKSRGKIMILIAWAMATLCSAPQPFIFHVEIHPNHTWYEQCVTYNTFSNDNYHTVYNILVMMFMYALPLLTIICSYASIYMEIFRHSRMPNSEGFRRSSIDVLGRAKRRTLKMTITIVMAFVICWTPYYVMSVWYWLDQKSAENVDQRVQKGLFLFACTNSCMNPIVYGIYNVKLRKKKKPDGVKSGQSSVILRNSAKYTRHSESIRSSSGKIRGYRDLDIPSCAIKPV
Experimental: For each construct, an overnight liquid culture of clonal recombinant bacteria containing the appropriate plasmid construct was grown in antibiotic-containing LB media and used to isolate midiprep DNA using the PureLink Midiprep kit (Life Technologies, Burlington, ON). Midiprep samples were then quantified and sent for sequencing as described previously ([26], [27]).
as §1

Compound | Fold-reduction in activity relative to AedaeACP [1] | EC50 [1] [nM] | also measured
CC(C)[C@H](NC(=O)[C@@H]1CCC(=O)N1)C(=O)N[C@H](C(=O)N[C@@H](Cc1ccccc1)C(=O)N[C@@H](CO)C(=O)N[C@@H](CCCNC(=N)N)C(=O)N[C@@H](CC(=O)O)C(=O)N[C@@H](Cc1c[nH]c2ccccc12)C(N)=O)[C@@H](C)O [Aedae-ACP (1-8)] ([pGlu]VTFSRDW-NH2) | 410.1 fold | 2160 | 
CC(C)[C@H](NC(=O)[C@@H]1CCC(=O)N1)C(=O)N[C@H](C(=O)N[C@@H](Cc1ccccc1)C(=O)N[C@@H](CO)C(=O)N[C@@H](CCCNC(=N)N)C(=O)N[C@@H](CC(=O)O)C(=O)N[C@@H](Cc1c[nH]c2ccccc12)C(=O)N[C@@H](CC(N)=O)C(N)=O)[C@@H](C)O [Aedae-ACP (1-9)] ([pGlu]VTFSRDWN-NH2) | 434.2 fold | 4150 | 
CC(C)[C@H](NC(=O)[C@@H]1CCC(=O)N1)C(=O)N[C@H](C(=O)N[C@@H](Cc1ccccc1)C(=O)N[C@@H](CO)C(=O)N[C@@H](CCCNC(=N)N)C(=O)N[C@@H](CC(=O)O)C(=O)N[C@@H](Cc1c[nH]c2ccccc12)C(=O)N[C@@H](CC(N)=O)C(=O)N[C@@H](C)C(=O)NCC(N)=O)[C@@H](C)O [Aedae-ACP (+G)] ([pGlu]VTFSRDWNAG-NH2) | 5.6 fold | 111 | 
C[C@H](NC(=O)[C@H](CC(N)=O)NC(=O)[C@H](Cc1c[nH]c2ccccc12)NC(=O)[C@H](CC(=O)O)NC(=O)[C@H](CCCNC(=N)N)NC(=O)[C@H](CO)NC(=O)[C@H](Cc1ccccc1)NC(=O)[C@@H](NC(=O)[C@H](C)NC(=O)[C@@H]1CCC(=O)N1)[C@@H](C)O)C(N)=O [Aedae-ACP (A2)] ([pGlu]ATFSRDWNA-NH2) |  | 705 | 
CC(C)[C@H](NC(=O)[C@@H]1CCC(=O)N1)C(=O)N[C@H](C(=O)N[C@@H](Cc1ccccc1)C(=O)N[C@@H](C)C(=O)N[C@@H](CCCNC(=N)N)C(=O)N[C@@H](CC(=O)O)C(=O)N[C@@H](Cc1c[nH]c2ccccc12)C(=O)N[C@@H](CC(N)=O)C(=O)N[C@@H](C)C(N)=O)[C@@H](C)O [Aedae-ACP (A5)] ([pGlu]VTFARDWNA-NH2) | 44.9 fold | 1040 | 
CC(C)[C@H](NC(=O)[C@@H]1CCC(=O)N1)C(=O)N[C@H](C(=O)N[C@@H](Cc1ccccc1)C(=O)N[C@@H](CO)C(=O)N[C@@H](C)C(=O)N[C@@H](CC(=O)O)C(=O)N[C@@H](Cc1c[nH]c2ccccc12)C(=O)N[C@@H](CC(N)=O)C(=O)N[C@@H](C)C(N)=O)[C@@H](C)O [Aedae-ACP (A6)] ([pGlu]VTFSADWNA-NH2) | 23.3 fold | 687 | 
CC(C)[C@H](NC(=O)[C@@H]1CCC(=O)N1)C(=O)N[C@H](C(=O)N[C@@H](Cc1ccccc1)C(=O)N[C@@H](CO)C(=O)N[C@@H](CCCNC(=N)N)C(=O)N[C@@H](C)C(=O)N[C@@H](Cc1c[nH]c2ccccc12)C(=O)N[C@@H](CC(N)=O)C(=O)N[C@@H](C)C(N)=O)[C@@H](C)O [Aedae-ACP (A7)] ([pGlu]VTFSRAWNA-NH2) | 15.9 fold | 386 | 
CC(C)[C@H](NC(=O)[C@@H]1CCC(=O)N1)C(=O)N[C@H](C(=O)N[C@@H](Cc1ccccc1)C(=O)N[C@@H](CO)C(=O)N[C@@H](CCCNC(=N)N)C(=O)N[C@@H](CC(=O)O)C(=O)N[C@@H](Cc1c[nH]c2ccccc12)C(=O)N[C@@H](C)C(=O)N[C@@H](C)C(N)=O)[C@@H](C)O [Aedae-ACP (A9)] ([pGlu]VTFSRDWAA-NH2) | 0.2 fold | 4.96 | 
CC(C)C[C@H](NC(=O)[C@@H]1CCC(=O)N1)C(=O)N[C@@H](CC(N)=O)C(=O)N[C@@H](Cc1ccccc1)C(=O)N[C@H](C(=O)N1CCC[C@H]1C(=O)N[C@@H](CO)C(=O)N[C@@H](Cc1c[nH]c2ccccc12)C(N)=O)[C@@H](C)O [Erysi-AKH] ([pGlu]LNFTPSW-NH2) |  |  | Fold-reduction in activity relative to Aedae-AKH [2]: 310 fold and 309.9 fold; EC50 [2]: 669 nM
CC[C@H](C)[C@H](NC(=O)[C@@H]1CCC(=O)N1)C(=O)N[C@H](C(=O)N[C@@H](Cc1ccccc1)C(=O)N[C@@H](CO)C(=O)N[C@@H](CCCNC(=N)N)C(=O)N[C@@H](CC(=O)O)C(=O)N[C@@H](Cc1c[nH]c2ccccc12)C(=O)N[C@@H](CC(N)=O)C(=O)N[C@@H](C)C(N)=O)[C@@H](C)O [Grybi-ACP] ([pGlu]ITFSRDWNA-NH2) | 13.6 fold | 326 | Activity on ACPR at the highest tested dose, in words [1]: failed to reach full ACPR activation
CC(C)[C@H](NC(=O)[C@@H]1CCC(=O)N1)C(=O)N[C@@H](CC(N)=O)C(=O)N[C@@H](Cc1ccccc1)C(=O)N[C@@H](CO)C(=O)N[C@H](C(=O)NCC(=O)N[C@@H](Cc1c[nH]c2ccccc12)C(N)=O)[C@@H](C)O [Grybi-AKH] ([pGlu]VNFSTGW-NH2) |  |  | EC50 [2]: 2230 nM
CC(C)C[C@H](NC(=O)[C@@H]1CCC(=O)N1)C(=O)N[C@H](C(=O)N[C@@H](Cc1ccccc1)C(=O)N[C@H](C(=O)N[C@@H](CO)C(=O)N[C@@H](CO)C(=O)N[C@@H](Cc1c[nH]c2ccccc12)C(N)=O)[C@@H](C)O)[C@@H](C)O [Hipes-AKH-I] ([pGlu]LTFTSSW-NH2) |  |  | Fold-reduction in activity relative to Aedae-AKH [2]: 7.6 fold; EC50 [2]: 16.5 nM
CC(C)[C@H](NC(=O)[C@@H]1CCC(=O)N1)C(=O)N[C@@H](CC(N)=O)C(=O)N[C@@H](Cc1ccccc1)C(=O)N[C@H](C(=O)N1CCC[C@H]1C(=O)N[C@@H](CO)C(=O)N[C@@H](Cc1c[nH]c2ccccc12)C(N)=O)[C@@H](C)O [Libau-AKH] ([pGlu]VNFTPSW-NH2) |  |  | Fold-reduction in activity relative to Aedae-AKH [2]: 548 fold and 547.9 fold; EC50 [2]: 1180 nM; Improved AKHR-IA activation over that achieved by Grybi-AKH ([2]; relative to Grybi-AKH): ~2 fold
Ac-AVTFSRDWNA-NH2 [Aedae-ACP (A1b)] | 43.6 fold | 527 | 
H-AVTFSRDWNA-NH2 [Aedae-ACP (A1)] |  | 1580 | 
pQ-TFSRDWNAamide [Aedae-ACP (1,3-10), internally truncated ACP analog lacking valine in the second position] | >1,000 fold |  | 
pQLTFSSGWGNamide [Helze-AKH, naturally-occurring insect AKH decapeptide] | >1,000 fold |  | Activity on ACPR at the highest tested dose, in words [1]: low activity
pQLTFTPSWamide [Aedae-AKH, endogenous octapeptide adipokinetic hormone of Aedes aegypti] |  |  | Activity on ACPR at the highest tested dose, in words [1]: inactive
pQLTFTSSWGGamide [Lacol-AKH, naturally-occurring insect AKH decapeptide] | >1,000 fold |  | Activity on ACPR at the highest tested dose, in words [1]: low activity
pQVTASRDWNAamide [Aedae-ACP (A4), synthetic ACP analog, alanine at position 4] | >1,000 fold |  | 
pQVTFSRDANAamide [Aedae-ACP (A8), synthetic ACP analog, alanine at position 8] | >1,000 fold |  | 
pQVTFSRDWNA-OH [Aedae-ACP (-OH), non-amidated (free acid) ACP analog] | >1,000 fold |  | 
